Earlier results on one molecule are cited in US20240397950A1, “DISINFECTANT COMPOSITION” (OTSUKA PHARMACEUTICAL FACTORY, INC., priority 2018, published 2024).

A value given as a limit tells only on which side of the number the result lay.

In the case of `N=C(NCCCCCCNC(=N)NC(=N)Nc1ccc(Cl)cc1)NC(=N)Nc1ccc(Cl)cc1.O=C(O)[C@H](O)[C@@H](O)[C@H](O)[C@H](O)CO.O=C(O)[C@H](O)[C@@H](O)[C@H](O)[C@H](O)CO` [Chlorhexidine gluconate], the “pH at which a dilute aqueous solution causes precipitation” value is reported as at least 8.
